Here are results for 15 compounds from US5234903A, “Chemically modified hemoglobin as an effective, stable non-immunogenic red blood cell substitute” (Enzon, Inc., priority 1990, dated 1993).

In series [1] the test system is bovine hemoglobin. Put plainly: Reducing agents in bovine hemoglobin solution (deoxy Hb, Met Hb, free iron). The series is classed as biochemical. As to conditions: for Free Iron / Met Hb / deoxy Hb: 30 mM agent, 5% bovine hemoglobin, pH 7.4, 4° C., inert atmosphere, 20 hours. How it is done:
30 mM of each reducing agent tested, including cysteine, glutathione, N-acetyl cysteine, N-acetyl methionine and sodium ascorbate, was added to 5% bovine hemoglobin solution containing 0.lM Na phosphate, 0.1M NaHCO3 and 0.1M NaCl, with pH=7.4 and at 4° C., under an inert atmosphere. 20 hours later, the deoxyhemoglobin (deoxy Hb), Met Hb and free iron concentrations were determined. Met Hb and deoxy Hb concentrations were measured using an OSM3 Hemoximeter (Radiometer) and free iron was determined by the ferrozine assay method (Carter, 1971, Analyt. Biochem. 40:450-458).

Series [2] in a line: Oxygen binding: P50 (partial pressure of oxygen at 50% saturation) and Hill coefficient. The procedure:
Hemoglobin constitutes about 90% of the total protein in red blood cells. 100 ml of whole blood is capable of absorbing approximately 21 ml of gaseous oxygen due to the binding ability of hemoglobin. Equally important to the binding of oxygen, hemoglobin is also efficient in releasing the bound oxygen to tissues. The ability of hemoglobin to bind and release oxygen is often quantitatively expressed as the P50, the partial pressure of oxygen which results in fifty percent saturation of hemoglobin.
The resulting modified hemoglobin may then be tested to determine its P50 value so as to confirm that a clinically useful P50 has been achieved. Methods of P50 measurement include standard methods of analysis, such as, for example, methods utilizing the Hemox-Analyzer (TCS Medical Products Co., Huntingdon Valley, Pa.).
Following reduction, the hemoglobin may be reacted with an activated polyalkylene oxide under conditions which maintain the structural integrity of the oxygen binding site. In preferred embodiments of the invention, such conditions consist of a high anion concentration; in a specific embodiment this anion is chloride ion. In preferred embodiments, the chloride ion concentration is at least about 1.0M. […] According to the invention, the activated polyalkylene oxide may have one or more than one functional groups. The degree of modification for each preparation referred to in Table I is approximately 20 percent. This percent modification corresponds to about […] PEG molecules per each molecule of hemoglobin. The percent modification may be calculated according to the number of lysines modified by PEG and is based on a total of 48 surface lysines in bovine hemoglobin. The number may be determined by trinitrobenzene sulfonic acid (TNBS) assay (Habeef et al., 1966, Analyt. Biochem. 14:328-336).
(§1) The polyalkylene oxide modified hemoglobin may then be chemically characterized using methods known in the art. For example, the oxygen dissociation curve may be determined using standard techniques (for example, Imai et al., 1970, Biochim. Biophys. Acta 200: 189-196) allowing calculation of the P50 value. Additional parameters which would be desirable to measure include the methemoglobin content, the viscosity, the osmolality, the pH, and the Hill constant; the effects of changes in pH on the oxygen saturation curve may be determined as described in Bartels (1971, Blood oxygen dissociation curves: Mammals. in "Respiration and Circulation", Altman and Dittmer, Eds., Federation of American Societies for Experimental Biology, Bethesda).
Purification was carried out using a hollow-fiber ultrafiltration device with M.W. cutoff of 50 kD that is commercially available from American Fluid, Richboro, Pa. The advantage of this device relative to conventional tangential flat ultrafiltration membranes is its easy handling of viscous protein solutions such as the 6% PEG-Hb solution. Following purification, the P50 of the PEG-Hb was determined by a Hemox-Analyzer (TCS Medical Products Co., Huntington Valley, Pa.).

Series [3] is described as follows: Viscosity and colloid osmotic pressure of PEG-Hb solutions. The series is classed as physicochemical. As to conditions: for colloid osmotic pressure: 6 percent (g/dl) product; for Viscosity: 6 percent (g/dl), 37° C.
Text: as §1

[4] abbreviates: degree of modification 3%, 0.15M [Cl-].
The mark [5] stands for this setting: degree of modification 6%, 0.15M [Cl-].
The mark [6] stands for this setting: 30 mM sodium bisulfite, 59% deoxyHb before PEGylation.
Where [7] appears, read: 50 mM sodium bisulfite, 63% deoxyHb before PEGylation.
Where [8] appears, read: 100 mM sodium bisulfite, 75% deoxyHb before PEGylation.
Setting [9] is: 175 mM sodium bisulfite, 95-100% deoxyHb before PEGylation.
Setting [10] is: 0% deoxyHb before PEGylation, SC-PEG.
Setting [11] is: 20% deoxyHb before PEGylation, SC-PEG.
[12] abbreviates: 35% deoxyHb before PEGylation, SC-PEG.
[13] abbreviates: 50% deoxyHb before PEGylation, SC-PEG.
Setting [14] is: 70% deoxyHb before PEGylation, SC-PEG.
The mark [15] stands for this setting: 90% deoxyHb before PEGylation, SC-PEG.
[16] abbreviates: 95% deoxyHb before PEGylation, SC-PEG.
Setting [17] is: 0% deoxyHb before PEGylation, BSC-PEG.
Where [18] appears, read: 25% deoxyHb before PEGylation, BSC-PEG.
Setting [19] is: 45% deoxyHb before PEGylation, BSC-PEG.
Setting [20] is: 61% deoxyHb before PEGylation, BSC-PEG.
Where [21] appears, read: 76% deoxyHb before PEGylation, BSC-PEG.
Setting [22] is: 93% deoxyHb before PEGylation, BSC-PEG.
[23] abbreviates: [Cl-] of reaction solution 0.1 M, degree of modification approximately 20 percent.
The mark [24] stands for this setting: [Cl-] of reaction solution 0.5 M, degree of modification approximately 20 percent.
The mark [25] stands for this setting: [Cl-] of reaction solution 1.0 M, degree of modification approximately 20 percent.
Setting [26] is: [Cl-] of reaction solution 1.5 M, degree of modification approximately 20 percent.
Where [27] appears, read: [Cl-] of reaction solution 2.0 M, degree of modification approximately 20 percent.
Where [28] appears, read: native, unmodified (footnote of Table VII).

For the compound `N[C@@H](CS)C(=O)O` [Cysteine, cysteine], in series [1], the Free Iron was determined as 4.26 µg/dL, the “Met Hb” value amounted to 0.8% and the “deoxy Hb” value worked out at 97.6%. Moreover, in series [1] (in words), the “deoxyhemoglobin level, ranking among agents” value is on record as “highest levels of deoxyhemoglobin”; the “methemoglobin and free iron level, ranking among agents” value is “lowest levels of methemoglobin and free iron”.

`N[C@@H](CCC(=O)N[C@@H](CS)C(=O)NCC(=O)O)C(=O)O` [GSH, reduced glutathione]: in series [1], the “Met Hb” value is 11.9% and the “deoxy Hb” value came out at 9.7%.

Regarding `CC(=O)N[C@@H](CS)C(=O)O` [N-acetyl cysteine], in series [1], the “Met Hb” value is 18.8% and the “deoxy Hb” value came out at 0%.

`CSCC[C@H](NC(C)=O)C(=O)O` [N-acetyl methionine]: in series [1], the “Met Hb” value is given as 19.6% and the “deoxy Hb” value stood at 0%.

On to `O=C1O[C@H]([C@@H](O)CO)C([O-])=C1O.[Na+]` [Na-Ascorbate, sodium ascorbate], for which, in series [1], the Free Iron stood at 233.7 µg/dL, the “Met Hb” value came to 4.1% and the “deoxy Hb” value was 96.7%.

Turning to “BSC-PEG(4600)-bHb: bovine hemoglobin modified with bifunctional BSC-PEG of molecular weight 4600”, the P50 in series [2] (setting [4]) is reported as 34 mm Hg; in series [2] (degree of modification 4.5%, 0.15M [Cl-]), 34 mm Hg; in series [2] (setting [5]) it was 32.5 mm Hg.

Consider “BSC-PEG(6000)-bHb: bovine hemoglobin modified with bifunctional BSC-PEG of molecular weight 6000”, for which the P50 in series [2] (setting [4]) is 38.5 mm Hg; in series [2] (setting [5]), 36.5 mm Hg; in series [2] (degree of modification 7.3%, 0.15M [Cl-]), 36.5 mm Hg.

As for “Bifunctional PEG-modified bHb: bovine hemoglobin reacted with BSC-PEG”, in series [2] (in words), the “P50 vs monofunctional PEG-modified bHb” value is given as “higher P50 than monofunctional PEG-modified bHb”.

On to “Example IX: bovine hemoglobin deoxygenated with sodium bisulfite, then modified using monofunctionally activated SC-PEG”, for which the “Hill Coefficient” value in series [2] (setting [6]) amounted to 1.8; in series [2] (setting [7]) it was 1.8; in series [2] (setting [8]), 2.2; in series [2] (setting [9]) it was 2.0. Further, the “P50 of PEG-Hb” value in series [2] (setting [6]) stood at 18.5 mmHg; in series [2] (setting [7]) it was 19.0 mmHg; in series [2] (setting [8]), 28.0 mmHg; in series [2] (setting [9]) it was 24.0 mmHg.

For “Example VIII: bovine hemoglobin partially deoxygenated by gas exchange, modified with SC-PEG (M.W. 5141), SC-PEG:Hb 12:1”, the Hill coeff. came out at 1.7 in series [2] (setting [10]); 1.7 in series [2] (setting [11]); 1.7 in series [2] (setting [12]); 2.0 in series [2] (setting [13]); 2.2 in series [2] (setting [14]); 2.0 in series [2] (setting [15]). The same compound registered a Hill coeff. in series [2] (setting [16]) of 2.0. For the same compound, the P50 in series [2] (setting [10]) worked out at 18 mmHg; in series [2] (setting [11]), 18 mmHg; in series [2] (setting [12]), 18 mmHg; in series [2] (setting [13]), 24 mmHg; in series [2] (setting [14]), 28 mmHg; in series [2] (setting [15]), 22 mmHg. The same compound had a P50 in series [2] (setting [16]) of 22 mmHg. In series [3], this compound returned a colloid osmotic pressure of 24 mmHg. This compound also came in with a Viscosity in series [3] of 4.2 cp.

As to “Example X: bovine hemoglobin deoxygenated by gas exchange, modified with BSC-PEG (M.W. 5000), BSC-PEG:Hb 2.5:1, crosslinked”, the Hill coeff. in series [2] (setting [17]) was 1.8; in series [2] (setting [18]), 1.9; in series [2] (setting [19]), 2.0; in series [2] (setting [20]), 2.3; in series [2] (setting [21]), 2.3; in series [2] (setting [22]), 2.0. Further, the P50 in series [2] (setting [17]) is given as 20 mmHg; in series [2] (setting [18]) it was 22 mmHg; in series [2] (setting [19]) it was 25 mmHg; in series [2] (setting [20]) it was 30 mmHg; in series [2] (setting [21]), 31 mmHg; in series [2] (setting [22]) it was 26 mmHg. In addition, the colloid osmotic pressure in series [3] is 20 mmHg. The Viscosity in series [3] is recorded as 4.5 cp.

For “SC-PEG(2000)-bHb: bovine hemoglobin modified with monofunctional SC-PEG of molecular weight 2000”, the P50 was 24 mm Hg in series [2] (setting [23]); 30 mm Hg in series [2] (setting [24]); 32 mm Hg in series [2] (setting [25]); 31 mm Hg in series [2] (setting [26]); 32 mm Hg in series [2] (setting [27]).

Consider “SC-PEG(4000)-bHb: bovine hemoglobin modified with monofunctional SC-PEG of molecular weight 4000”, for which the P50 in series [2] (setting [23]) is on record as 24 mm Hg; in series [2] (setting [24]) it was 28 mm Hg; in series [2] (setting [25]) it was 30 mm Hg; in series [2] (setting [26]), 30 mm Hg; in series [2] (setting [27]), 30 mm Hg.

“SC-PEG(5000)-bHb: bovine hemoglobin modified with monofunctional SC-PEG of molecular weight 5000”: the P50 in series [2] (setting [23]) worked out at 22 mm Hg; in series [2] (setting [24]), 24 mm Hg; in series [2] (setting [25]), 29 mm Hg; in series [2] (setting [26]), 30 mm Hg; in series [2] (setting [27]), 30 mm Hg; in series [2] (reacted in 0.1M [Cl-], degree of modification 5%) it was 24 mm Hg. Further, the P50 in series [2] (reacted in 0.1M [Cl-], degree of modification 10%) is 22 mm Hg; in series [2] (reacted in 0.1M [Cl-], degree of modification 20%), 22 mm Hg; in series [2] (reacted in 0.5M [Cl-], degree of modification 5%), 28 mm Hg; in series [2] (reacted in 0.5M [Cl-], degree of modification 10%), 24 mm Hg; in series [2] (reacted in 0.5M [Cl-], degree of modification 20%), 24 mm Hg; in series [2] (reacted in 1.0M [Cl-], degree of modification 5%) it was 30 mm Hg. The P50 in series [2] (reacted in 1.0M [Cl-], degree of modification 10%) came to 29 mm Hg; in series [2] (reacted in 1.0M [Cl-], degree of modification 20%), 29 mm Hg.

On to “native stromafree bHb: native stromafree bHb from Biopure, Boston, MA [reference compound]”, for which, in series [2] (setting [28]), the “Hill Coefficient” value was 2.3 and the P50 is recorded as 28 mmHg.
